For the data set, the system named is rodent carcinogenicity bioassays, tumor incidence. The data set can be described thus: CCRIS carcinogenicity studies. The settings on record: Dose: 0, Dose: 0. The procedure, abridged: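 NCI-built, expert-reviewed records of carcinogenicity and related test outcomes (mutagenicity, tumor promotion/inhibition) compiled from published and report sources, historical span 1985-2011, not updated.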

Activity calls are given as the source filed them. The rule behind the calls is not given here.

`C[N+](C)(C)CCCl`: the carcinogen call (Species: MOUSE, Strain/Sex: B6C3F1/FEMALE, Route: ORAL, 500, 2000 PPM IN DIET, 500, 2000 PPM IN DIET) was “inactive; negative”; the carcinogen call (Species: MOUSE, Strain/Sex: B6C3F1/MALE, Route: ORAL, 500, 2000 PPM IN DIET, 500, 2000 PPM IN DIET) was “inactive; negative”; the carcinogen call (Species: RAT, Strain/Sex: F344/FEMALE, Route: ORAL, 1500, 3000 PPM IN DIET, 1500, 3000 PPM IN DIET) was “inactive; negative”; the carcinogen call (Species: RAT, Strain/Sex: F344/MALE, Route: ORAL, 1500, 3000 PPM IN DIET, 1500, 3000 PPM IN DIET) is “inactive; negative”.
As for `Brc1c2ccccc2cc2c1ccc1ccccc12`, the carcinogen call (Species: MOUSE, Strain/Sex: B6C3F1/MALE, Route: INTRAPERITONEAL, 1600 NMOL (TOTAL DOSE) ADMINISTERED IN DOSES OF 1/7 WITHIN 24 HR OF BIRTH, 2/7 AT 8 DAYS OF AGE AND 4/7 AT 15 DAYS OF, Tumor Site: Type of Lesion: LIVER: ADENOMA, CARCINOMA) was “active; positive”.
On to `O=C1c2ccccc2C(=O)c2c(O)cccc21`, for which the carcinogen call (Species: RAT, Strain/Sex: ACI/N/MALE, Route: ORAL, 1% IN BASAL DIET FOR DURATION OF STUDY (STUDY DURATION: 480 D), Tumor Site: Type of Lesion: CECUM: ADENOMA, ADENOCARCINOMA, COLON: ADENOMA, ADENOCARCINOMA, LIVER: TUMOR, STOMACH: TUMOR, Tumor Site: Type of Lesion: CECUM: ADENOMA, ADENOCARCINOMA, COLON: ADENOMA, ADENOCARCINOMA, LIVER: TUMOR, STOMACH: TUMOR) is “active; positive”.
Turning to `O[C@H]1C=Cc2nc3c(ccc4ccccc43)cc2[C@@H]1O`, the carcinogen call is “active; positive” (Species: MOUSE, Strain/Sex: SWISS/FEMALE, Route: INTRAPERITONEAL, 1.05 UMOL GIVEN AS 150 NMOL IN 5 µL DMSO WITHIN 24 HR OF BIRTH, 300 NMOL IN 10 µL DMSO ON D 8 OF LIFE, AND 600 NMOL I, Tumor Site: Type of Lesion: LUNG: ADENOMA) and “active; positive” (Species: MOUSE, Strain/Sex: SWISS/MALE, Route: INTRAPERITONEAL, 1.05 UMOL GIVEN AS 150 NMOL IN 5 µL DMSO WITHIN 24 HR OF BIRTH, 300 NMOL IN 10 µL DMSO ON D 8 OF LIFE, AND 600 NMOL I, Tumor Site: Type of Lesion: LUNG: ADENOMA).
With `CC(C)=CCC/C(C)=C/C=O`, the carcinogen call was “equivocal” (Species: MOUSE, Strain/Sex: B3C3F1/FEMALE (50), Route: ORAL, 500, 1000, 2000 PPM IN MICROCAPSULES IN THE DIET FOR 2 YR (STUDY DURATION: 2 YR), 500, 1000, 2000 PPM IN MICROCAPSULES IN THE DIET FOR 2 YR (STUDY DURATION: 2 YR), Tumor Site: Type of Lesion: LYMPHATIC SYSTEM: MALIGNANT LYMPHOMA); “inactive; negative” (Species: MOUSE, Strain/Sex: B6C3F1/MALE (50), Route: ORAL, 500, 1000, 2000 PPM IN MICROCAPSULES IN THE DIET FOR 2 YR (STUDY DURATION: 2 YR), 500, 1000, 2000 PPM IN MICROCAPSULES IN THE DIET FOR 2 YR (STUDY DURATION: 2 YR)); “inactive; negative” (Species: RAT, Strain/Sex: F344/FEMALE, Route: ORAL, 1000, 2000, 4000 PPM IN MICROCAPSULES IN THE DIET FOR 2 YR (STUDY DURATION: 2 YR), 1000, 2000, 4000 PPM IN MICROCAPSULES IN THE DIET FOR 2 YR (STUDY DURATION: 2 YR)); “inactive; negative” (Species: RAT, Strain/Sex: F344/MALE, Route: ORAL, 1000, 2000, 4000 PPM IN MICROCAPSULES IN THE DIET FOR 2 YR (STUDY DURATION: 2 YR), 1000, 2000, 4000 PPM IN MICROCAPSULES IN THE DIET FOR 2 YR (STUDY DURATION: 2 YR)).
Turning to `C=Cc1ccc(C)cc1`, the carcinogen call is “inactive; negative” (Species: MOUSE, Strain/Sex: SWISS/FEMALE, Route: INTRAGASTRIC, 10, 50, 250 MG/KG IN OLIVE OIL 1/D, 5 D/WK FOR 78 WK (STUDY DURATION: 83 WK), 10, 50, 250 MG/KG IN OLIVE OIL 1/D, 5 D/WK FOR 78 WK (STUDY DURATION: 83 WK)); “inactive; negative” (Species: MOUSE, Strain/Sex: SWISS/MALE, Route: INTRAGASTRIC, 10, 50, 250 MG/KG IN OLIVE OIL 1/D, 5 D/WK FOR 78 WK (STUDY DURATION: 83 WK), 10, 50, 250 MG/KG IN OLIVE OIL 1/D, 5 D/WK FOR 78 WK (STUDY DURATION: 83 WK)); “inactive; negative” (Species: RAT, Strain/Sex: SPRAGUE-DAWLEY/FEMALE, Route: INTRAGASTRIC, 10, 50, 250, 500 MG/KG IN OLIVE OIL 1/D, 5 D/WK FOR 104 WK (STUDY DURATION: 123 WK), 10, 50, 250, 500 MG/KG IN OLIVE OIL 1/D, 5 D/WK FOR 104 WK (STUDY DURATION: 123 WK)); “inactive; negative” (Species: RAT, Strain/Sex: SPRAGUE-DAWLEY/MALE, Route: INTRAGASTRIC, 10, 50, 250, 500 MG/KG IN OLIVE OIL 1/D, 5 D/WK FOR 104 WK (STUDY DURATION: 123 WK), 10, 50, 250, 500 MG/KG IN OLIVE OIL 1/D, 5 D/WK FOR 104 WK (STUDY DURATION: 123 WK)).
In the case of `c1cc(OCC2CO2)cc(OCC2CO2)c1` (centres undefined), the carcinogen call is, setting by setting: (Species: MOUSE, Strain/Sex: B6C3F1/FEMALE, Route: GAVAGE, 50, 100 MG/KG BW IN CORN OIL 5 D/WK FOR 103 WK (STUDY DURATION: 105 WK), 50, 100 MG/KG BW IN CORN OIL 5 D/WK FOR 103 WK (STUDY DURATION: 105 WK), Tumor Site: Type of Lesion: FORESTOMACH: SQUAMOUS CELL CARCINOMA, SQUAMOUS CELL PAPILLOMA) “active; positive”; (Species: MOUSE, Strain/Sex: B6C3F1/FEMALE, Route: GAVAGE, 50, 100 MG/KG IN CORN OIL 5 D/WK FOR 103 WK (STUDY DURATION: 104-105 WK), 50, 100 MG/KG IN CORN OIL 5 D/WK FOR 103 WK (STUDY DURATION: 104-105 WK), Tumor Site: Type of Lesion: FORESTOMACH: SQUAMOUS CELL PAPILLOMA, SQUAMOUS CELL CARCINOMA) “active; positive”; (Species: MOUSE, Strain/Sex: B6C3F1/MALE, Route: GAVAGE, 50, 100 MG/KG BW IN CORN OIL 5 D/WK FOR 103 WK (STUDY DURATION: 105 WK), 50, 100 MG/KG BW IN CORN OIL 5 D/WK FOR 103 WK (STUDY DURATION: 105 WK), Tumor Site: Type of Lesion: FORESTOMACH: SQUAMOUS CELL CARCINOMA, SQUAMOUS CELL PAPILLOMA) “active; positive”; (Species: MOUSE, Strain/Sex: B6C3F1/MALE, Route: GAVAGE, 50, 100 MG/KG IN CORN OIL 5 D/WK FOR 103 WK (STUDY DURATION: 104-105 WK), 50, 100 MG/KG IN CORN OIL 5 D/WK FOR 103 WK (STUDY DURATION: 104-105 WK), Tumor Site: Type of Lesion: FORESTOMACH: SQUAMOUS CELL PAPILLOMA, SQUAMOUS CELL CARCINOMA) “active; positive”; (Species: RAT, Strain/Sex: F344/FEMALE, Route: GAVAGE, 12, 25, 50 MG/KG BW IN CORN OIL 5 D/WK FOR 103 WK (STUDY DURATION: 105 WK), 12, 25, 50 MG/KG BW IN CORN OIL 5 D/WK FOR 103 WK (STUDY DURATION: 105 WK), Tumor Site: Type of Lesion: FORESTOMACH: SQUAMOUS CELL CARCINOMA, SQUAMOUS CELL PAPILLOMA) “active; positive”; (Species: RAT, Strain/Sex: F344/FEMALE, Route: GAVAGE, 12, 25, 50 MG/KG IN CORN OIL 5 D/WK FOR 103 WK (STUDY DURATION: 104-105 WK), 12, 25, 50 MG/KG IN CORN OIL 5 D/WK FOR 103 WK (STUDY DURATION: 104-105 WK), Tumor Site: Type of Lesion: FORESTOMACH: SQUAMOUS CELL PAPILLOMA, SQUAMOUS CELL CARCINOMA) “active; positive”. Moreover, the carcinogen call is “active; positive” (Species: RAT, Strain/Sex: F344/MALE, Route: GAVAGE, 12, 25, 50 MG/KG IN CORN OIL 5 D/WK FOR 103 WK (STUDY DURATION: 104-105 WK), 12, 25, 50 MG/KG IN CORN OIL 5 D/WK FOR 103 WK (STUDY DURATION: 104-105 WK), Tumor Site: Type of Lesion: FORESTOMACH: SQUAMOUS CELL PAPILLOMA, SQUAMOUS CELL CARCINOMA) and “active; positive” (Species: RAT, Strain/Sex: F344/MALE, Route: GAVAGE, 12, 25, 50 MG/KG IN CORN OIL 5 D/WK FOR 103 WK (STUDY DURATION: 105 WK), 12, 25, 50 MG/KG IN CORN OIL 5 D/WK FOR 103 WK (STUDY DURATION: 105 WK), Tumor Site: Type of Lesion: FORESTOMACH: SQUAMOUS CELL CARCINOMA, SQUAMOUS CELL PAPILLOMA).
